Holding throughout (assay type): in vitro ADME
One data set deals with T1, OAT1 (Homo sapiens, UniProt Q4U2R8).
T1 construct: expressed in transfected cells; host or cells: MDCKII
T1 sequence (Q4U2R8 1-563): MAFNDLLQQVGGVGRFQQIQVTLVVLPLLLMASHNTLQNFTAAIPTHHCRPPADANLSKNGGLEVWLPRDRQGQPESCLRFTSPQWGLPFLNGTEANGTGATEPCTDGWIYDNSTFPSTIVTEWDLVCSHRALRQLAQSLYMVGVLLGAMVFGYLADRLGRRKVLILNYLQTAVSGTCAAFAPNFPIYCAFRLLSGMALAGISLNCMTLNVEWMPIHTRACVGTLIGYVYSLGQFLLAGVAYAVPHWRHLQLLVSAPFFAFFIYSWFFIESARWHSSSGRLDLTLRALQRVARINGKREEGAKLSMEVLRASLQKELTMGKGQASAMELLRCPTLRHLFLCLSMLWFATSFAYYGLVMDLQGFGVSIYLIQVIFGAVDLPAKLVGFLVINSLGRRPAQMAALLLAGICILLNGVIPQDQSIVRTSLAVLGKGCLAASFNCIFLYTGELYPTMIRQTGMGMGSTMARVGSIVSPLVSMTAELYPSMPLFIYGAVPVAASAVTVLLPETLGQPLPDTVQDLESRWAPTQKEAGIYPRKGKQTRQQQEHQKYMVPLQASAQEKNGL
Put plainly: Inhibition of transporter-mediated probe uptake in MDCKII-OAT1 cells.

The target in another data set is MDR1 P-gp (Homo sapiens, UniProt P08183). Put plainly: Uptake in MDR1 P-gp-containing Sf9 membrane vesicles (substrate). More on the design: expressed in transfected cells.
Sequence of MDR1 P-gp (P08183 whole entry): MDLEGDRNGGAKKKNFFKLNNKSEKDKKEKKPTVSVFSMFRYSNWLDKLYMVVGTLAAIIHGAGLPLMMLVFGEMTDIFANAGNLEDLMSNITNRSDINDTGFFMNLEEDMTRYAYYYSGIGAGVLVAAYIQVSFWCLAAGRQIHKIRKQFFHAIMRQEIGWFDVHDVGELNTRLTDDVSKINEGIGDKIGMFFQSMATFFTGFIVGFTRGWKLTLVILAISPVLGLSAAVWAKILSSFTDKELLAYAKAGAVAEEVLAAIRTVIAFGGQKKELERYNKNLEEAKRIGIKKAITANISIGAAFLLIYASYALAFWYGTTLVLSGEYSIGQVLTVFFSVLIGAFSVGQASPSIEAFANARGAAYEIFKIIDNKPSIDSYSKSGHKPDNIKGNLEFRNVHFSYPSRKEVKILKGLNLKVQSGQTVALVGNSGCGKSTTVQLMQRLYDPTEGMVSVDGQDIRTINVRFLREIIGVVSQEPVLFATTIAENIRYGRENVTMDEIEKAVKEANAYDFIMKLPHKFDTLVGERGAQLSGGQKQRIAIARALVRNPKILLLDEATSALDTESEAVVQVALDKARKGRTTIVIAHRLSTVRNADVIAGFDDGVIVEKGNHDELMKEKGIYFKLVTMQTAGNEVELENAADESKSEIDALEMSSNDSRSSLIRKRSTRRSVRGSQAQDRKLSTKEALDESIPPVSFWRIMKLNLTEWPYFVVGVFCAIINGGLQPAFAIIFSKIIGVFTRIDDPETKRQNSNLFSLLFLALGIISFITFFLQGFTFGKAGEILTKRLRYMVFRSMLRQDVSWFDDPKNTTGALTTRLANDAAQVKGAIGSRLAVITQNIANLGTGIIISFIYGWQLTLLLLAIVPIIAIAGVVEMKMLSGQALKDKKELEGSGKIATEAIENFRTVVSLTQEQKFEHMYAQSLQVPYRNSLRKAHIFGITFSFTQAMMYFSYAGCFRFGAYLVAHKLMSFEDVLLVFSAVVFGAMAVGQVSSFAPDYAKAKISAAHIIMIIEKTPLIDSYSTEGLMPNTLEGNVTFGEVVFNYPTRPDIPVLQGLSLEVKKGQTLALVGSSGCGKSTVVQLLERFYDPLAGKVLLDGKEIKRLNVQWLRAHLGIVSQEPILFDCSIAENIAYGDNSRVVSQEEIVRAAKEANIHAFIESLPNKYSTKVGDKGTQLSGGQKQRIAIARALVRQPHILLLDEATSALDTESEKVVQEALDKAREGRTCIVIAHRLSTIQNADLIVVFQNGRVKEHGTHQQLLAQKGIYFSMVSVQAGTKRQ
The target of the next data set is T2, MRP3 (Homo sapiens, UniProt O15438).
T2 construct: purchased Thermo Fisher Scientific; host or cells: Sf9
T2 sequence (O15438 whole entry): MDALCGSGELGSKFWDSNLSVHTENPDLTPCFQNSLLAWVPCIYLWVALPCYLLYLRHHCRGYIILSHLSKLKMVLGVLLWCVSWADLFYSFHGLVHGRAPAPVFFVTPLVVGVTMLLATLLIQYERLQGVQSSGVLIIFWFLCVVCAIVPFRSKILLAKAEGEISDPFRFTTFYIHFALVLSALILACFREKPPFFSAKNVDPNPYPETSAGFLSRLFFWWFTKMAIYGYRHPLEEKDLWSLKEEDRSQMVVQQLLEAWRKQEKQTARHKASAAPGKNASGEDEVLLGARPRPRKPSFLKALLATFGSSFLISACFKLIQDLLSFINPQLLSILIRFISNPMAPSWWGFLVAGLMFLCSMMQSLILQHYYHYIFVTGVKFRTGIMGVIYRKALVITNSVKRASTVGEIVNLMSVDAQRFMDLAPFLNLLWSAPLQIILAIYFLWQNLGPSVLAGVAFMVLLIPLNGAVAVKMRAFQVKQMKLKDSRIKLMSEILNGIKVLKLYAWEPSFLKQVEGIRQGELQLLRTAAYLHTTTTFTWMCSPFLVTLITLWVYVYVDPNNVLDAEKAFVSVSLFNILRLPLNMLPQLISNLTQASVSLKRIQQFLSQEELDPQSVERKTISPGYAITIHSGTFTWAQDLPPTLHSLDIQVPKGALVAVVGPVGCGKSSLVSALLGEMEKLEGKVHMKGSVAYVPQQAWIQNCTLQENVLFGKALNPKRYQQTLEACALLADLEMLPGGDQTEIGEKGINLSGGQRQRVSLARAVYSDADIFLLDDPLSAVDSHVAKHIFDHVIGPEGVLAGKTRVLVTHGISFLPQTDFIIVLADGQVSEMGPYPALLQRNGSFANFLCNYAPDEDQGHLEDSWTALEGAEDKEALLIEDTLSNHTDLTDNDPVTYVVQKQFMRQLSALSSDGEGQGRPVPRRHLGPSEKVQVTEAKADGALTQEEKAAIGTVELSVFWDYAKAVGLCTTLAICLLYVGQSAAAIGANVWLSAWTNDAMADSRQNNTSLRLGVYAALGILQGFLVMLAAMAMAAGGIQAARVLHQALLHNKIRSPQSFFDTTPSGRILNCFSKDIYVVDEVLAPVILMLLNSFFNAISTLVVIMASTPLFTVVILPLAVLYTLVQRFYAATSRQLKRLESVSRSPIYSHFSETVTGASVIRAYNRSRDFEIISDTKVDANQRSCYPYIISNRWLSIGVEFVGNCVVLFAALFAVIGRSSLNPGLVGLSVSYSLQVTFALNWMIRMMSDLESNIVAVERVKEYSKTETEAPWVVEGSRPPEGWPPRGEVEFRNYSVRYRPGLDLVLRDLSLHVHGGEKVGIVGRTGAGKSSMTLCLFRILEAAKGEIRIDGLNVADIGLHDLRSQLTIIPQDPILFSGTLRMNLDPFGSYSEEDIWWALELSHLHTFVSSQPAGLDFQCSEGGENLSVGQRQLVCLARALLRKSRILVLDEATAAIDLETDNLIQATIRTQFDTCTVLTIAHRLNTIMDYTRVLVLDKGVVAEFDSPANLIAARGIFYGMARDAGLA
Kind of data set: Inhibition of ATP-dependent probe uptake in Sf9 membrane vesicles. To be noted: MRP3-mediated ATP-dependent uptake of E217βG.

A further data set concerns the target T3, CYP2B6 (Homo sapiens, UniProt P20813).
T3 sequence (P20813 1-491): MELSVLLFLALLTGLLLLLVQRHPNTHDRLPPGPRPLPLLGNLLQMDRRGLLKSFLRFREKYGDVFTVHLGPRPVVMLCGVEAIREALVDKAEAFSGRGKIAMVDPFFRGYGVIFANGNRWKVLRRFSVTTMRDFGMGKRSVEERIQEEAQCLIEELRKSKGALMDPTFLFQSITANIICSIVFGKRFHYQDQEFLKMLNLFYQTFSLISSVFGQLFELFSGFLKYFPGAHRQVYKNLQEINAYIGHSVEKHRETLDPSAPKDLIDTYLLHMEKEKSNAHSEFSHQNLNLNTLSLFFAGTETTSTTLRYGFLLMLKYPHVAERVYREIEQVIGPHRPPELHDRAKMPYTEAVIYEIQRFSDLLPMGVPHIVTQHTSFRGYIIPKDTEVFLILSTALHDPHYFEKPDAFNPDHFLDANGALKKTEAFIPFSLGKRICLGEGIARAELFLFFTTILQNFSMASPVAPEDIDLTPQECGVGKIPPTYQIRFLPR
Put plainly: Reversible CYP inhibition in pooled human liver microsomes.

The next data set has as its target T4, MATE1 (Homo sapiens, UniProt Q96FL8).
T4 construct: expressed in transfected cells; host or cells: CHO-K1
T4 sequence (Q96FL8 1-570): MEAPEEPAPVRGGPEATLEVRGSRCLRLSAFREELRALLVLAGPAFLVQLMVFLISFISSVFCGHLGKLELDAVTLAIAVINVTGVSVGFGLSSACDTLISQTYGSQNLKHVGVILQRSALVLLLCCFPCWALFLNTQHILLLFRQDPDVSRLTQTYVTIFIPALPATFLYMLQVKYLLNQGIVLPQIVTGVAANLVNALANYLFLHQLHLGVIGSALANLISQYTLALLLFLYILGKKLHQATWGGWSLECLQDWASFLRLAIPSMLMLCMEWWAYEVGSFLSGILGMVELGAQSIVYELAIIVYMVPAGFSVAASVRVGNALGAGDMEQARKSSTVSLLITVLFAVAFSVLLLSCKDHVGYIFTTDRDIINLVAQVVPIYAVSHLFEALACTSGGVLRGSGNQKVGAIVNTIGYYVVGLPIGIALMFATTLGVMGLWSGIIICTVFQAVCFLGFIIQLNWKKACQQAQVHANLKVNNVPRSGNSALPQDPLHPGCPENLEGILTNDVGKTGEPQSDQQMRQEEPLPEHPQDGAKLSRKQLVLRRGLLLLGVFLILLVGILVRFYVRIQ
Put plainly: Islatravir uptake as substrate, CHO-K1 vs CHO-K1-MATE1 cells.

The target of the next data set is T5, OCT2 (Homo sapiens, UniProt O15244).
T5 construct: expressed in transfected cells; host or cells: CHO-K1
T5 sequence (O15244 1-555): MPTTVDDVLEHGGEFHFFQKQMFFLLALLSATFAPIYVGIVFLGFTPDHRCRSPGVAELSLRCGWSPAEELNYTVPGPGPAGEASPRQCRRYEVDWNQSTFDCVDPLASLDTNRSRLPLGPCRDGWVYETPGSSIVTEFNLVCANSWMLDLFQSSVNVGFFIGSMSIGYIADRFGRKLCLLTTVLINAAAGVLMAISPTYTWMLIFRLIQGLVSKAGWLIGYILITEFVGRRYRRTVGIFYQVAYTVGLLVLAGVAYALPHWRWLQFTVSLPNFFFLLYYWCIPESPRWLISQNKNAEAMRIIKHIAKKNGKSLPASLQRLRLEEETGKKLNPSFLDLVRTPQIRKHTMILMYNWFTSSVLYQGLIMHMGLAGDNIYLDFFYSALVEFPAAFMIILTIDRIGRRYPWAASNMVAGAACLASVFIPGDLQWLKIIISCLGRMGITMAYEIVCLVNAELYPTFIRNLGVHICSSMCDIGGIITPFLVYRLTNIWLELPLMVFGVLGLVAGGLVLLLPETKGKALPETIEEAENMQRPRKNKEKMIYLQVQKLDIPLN
Put plainly: Islatravir uptake as substrate, CHO-K1 vs CHO-K1-OCT2 cells.

Setting [1] is: [14C]islatravir 5 µM, presence of ATP, 10 min, mean ± standard deviation.

For orientation: IC50 means the concentration needed to halve the response being measured. Turning to `C#C[C@]1(CO)O[C@@H](n2cnc3c(N)nc(F)nc32)C[C@@H]1O` [Islatravir, 4′-Ethynyl-2-fluoro-2′-deoxyadenosine], the IC50 at OAT1 (OAT1-mediated cidofovir uptake, read-out: Islatravir IC50) was above 100 µM; against MRP3, above 100 µM; at CYP2B6 (reversible, CYP2B6 bupropion hydroxylation, read-out: Islatravir IC50), above 100 µM. The “Maximum Unbound Plasma Concentration (Imax,u) to IC50 Ratio” value on OAT1 (OAT1, 60 mg, Cmax 1.01 µM, fu,p 0.96) is below 0.010 µM. Also, the “DDI Potential” value is given as “Low risk” on OAT1 (OAT1 inhibition, FDA, EMA, PMDA guidance) and “Low risk” at CYP2B6 (CYP2B6 reversible inhibition, FDA, EMA, PMDA guidance). Besides, the “uptake into control vesicles” value on MDR1 P-gp (setting [1]) was 5.7 ± 2.1 pmole/mg protein. The “uptake into membrane vesicles containing MDR1 P-gp” value on MDR1 P-gp (setting [1]) was 3.7 ± 1.3 pmole/mg protein. Further, the “MDR1 P-gp substrate assessment” value on MDR1 P-gp (uptake not ATP-dependent) was “not a substrate of MDR1 P-gp”. Moreover, the “Maximum Unbound Plasma Concentration (Imax,u) to Ki,u Ratio” value at CYP2B6 (CYP2B6 reversible, 60 mg, Cmax 1.01 µM, fu,p 0.96, Ki,u = IC50/2) is below 0.019 µM. In addition, the “Islatravir Uptake Transporter-Expressing Cells” value at MATE1 (CHO-K1-MATE1, 2 µM [14C]islatravir, 20 min, mean ± SD, n = 3) is on record as 2.94 ± 0.20 pmole/10^6 Cells; on OCT2 (CHO-K1-OCT2, 1 µM [3H]islatravir, 5 min, mean ± SD, n = 3), 0.79 ± 0.14 pmole/10^6 Cells. Moreover, the Fold-Difference was found to be 1.01 on MATE1 (MATE1, uptake into transporter-expressing cells to control cells, 20 min) and 0.81 at OCT2 (OCT2, uptake into transporter-expressing cells to control cells, 5 min). Moreover, the “Islatravir Uptake Control Cells” value amounted to 2.90 ± 0.27 pmole/10^6 Cells at MATE1 (MATE1 row, CHO-K1 control cells, 2 µM [14C]islatravir, 20 min, mean ± SD, n = 3) and 0.97 ± 0.01 pmole/10^6 Cells on OCT2 (OCT2 row, CHO-K1 control cells, 1 µM [3H]islatravir, 5 min, mean ± SD, n = 3). For the same compound, the Conclusions entry at MATE1 (MATE1 substrate assessment) and on OCT2 (OCT2 substrate assessment) was “Non-substrate” in each case.

The values are drawn from article PMC8402619 (Viruses, 2021).
